Reference: PMC10053710, “Influence of Lipidation Pattern of the KR12 Fragment of Peptide LL-37 on Its Antibacterial and Hemolytic Activities” (International Journal of Molecular Sciences, 2023)
In brackets after ≈: the same amount, converted by molar mass. Several values for one entry are separate records, joined by “and”; a condition that tells them apart may be missing. Equal values may be shown once. Where a SMILES comes first, the peptide text is derived from it. The star is where a group is joined. Octanoyl = CCCCCCCC(=O)*; X1 = CCCCCCC(CCCC)C(=O)*; X3 = CCCCC(CC)C(=O)*; Butyryl = CCCC(=O)*

Assays:
S. aureus ATCC 12598 = type: cell-based, Staphylococcus aureus; conditions: ATCC 12598, 18 h
Description: (§1) Tests of the antibacterial activity were carried out as we just described. Briefly, for assays, the following strains of ESKAPE bacteria were chosen: Acinetobacter baumannii ATCC BAA-1605, Enterococcus faecium ATCC 700221, Klebsiella aerogenes ATCC 13048 (formerly Enterobacter aerogenes), Klebsiella pneumoniae ATCC 700603, and Pseudomonas aeruginosa ATCC 9027. Moreover, the reference strains of Staphylococcus aureus were used: S. aureus ATCC 25923, S. aureus ATCC 6538, S. aureus ATCC 33591 (MRSA), S. aureus ATCC 9144, and S. aureus ATCC 12598. Before experiments, all the strains were stored at −80 °C in Roti®-Store cryo vials (Carl Roth GmbH, Karlsruhe, Germany). To evaluate the activity of the compounds, bacteria were transferred into fresh Mueller–Hinton medium (Becton Dickinson, Warszawa, Poland) and incubated for 24 h at 37 °C. In the next step, bacterial inoculums were seeded on Mueller–Hinton agar plates (BioMaxima SA, Lublin, Poland) and incubated again for 24 h. The MIC values were determined using the broth microdilution method according to the Clinical and Laboratory Standards Institute Protocol. The initial inoculums of bacteria (0.5 × 10^5 colony forming units (CFU)/mL) prepared in Mueller–Hinton broth were exposed to the ranging concentrations of peptides (1–512 µg/mL). The experiments were conducted on 96-well microtiter plates, with a final volume of 100 µL. The inoculum densities were checked spectrophotometrically (Multiskan™ GO Microplate Spectrophotometer, Thermo Scientific, Waltham, MA, USA) at 600 nm. The results were read after incubation for 18 h at 37 °C. The MIC values were the lowest concentration at which a visible growth of microorganisms was inhibited. All experiments were conducted in triplicate. Moreover, positive (growth) and negative (sterility) controls were included.

S. aureus ATCC 6538 = type: cell-based, Staphylococcus aureus; conditions: ATCC 6538, 18 h
Description: as §1

[1] = test system: S. aureus ATCC 33591 (MRSA); type: cell-based, Staphylococcus aureus; conditions: ATCC 33591, 18 h
Description: as §1

S. aureus ATCC 25923 = type: cell-based, Staphylococcus aureus; conditions: ATCC 25923, 18 h
Description: as §1

S. aureus ATCC 9144 = type: cell-based, Staphylococcus aureus; conditions: ATCC 9144, 18 h
Description: as §1

[2] = test system: Klebsiella pneumoniae ATCC 700603; type: cell-based; conditions: ATCC 700603, 18 h
Description: as §1

[3] = test system: Pseudomonas aeruginosa ATCC 9027; type: cell-based; conditions: ATCC 9027, 18 h
Description: as §1

[4] = test system: Enterococcus faecium ATCC 700221; type: cell-based; conditions: ATCC 700221, 18 h
Description: as §1

[5] = test system: Klebsiella aerogenes ATCC 13048; type: cell-based; conditions: ATCC 13048, 18 h
Description: as §1

[6] = test system: human red blood cells (hRBCs); experiment: Hemolysis assay; conditions: for MHC5 (minimum hemolytic concentration causing 5% hemolysis of hRBCs): 4% (v/v) erythrocytes in PBS, peptides 1–512 µg/mL, 1 h at 37 °C, hemoglobin at 540 nm
Description: To facilitate a comparison of hemolytic activity between the analogs, MHC5 values were determined. MHC5 is the minimum hemolytic concentration of the compounds that caused the 5% hemolysis of hRBCs.
Briefly, the fresh hRBCs with EDTA as anticoagulant were rinsed three times with PBS through centrifugation at 800× g for 10 min and resuspended in PBS. The serial dilution of peptides (1–512 µg/mL) was prepared in PBS on 96-well plates. Then, the stock RBCs solution was added to the plates to reach a final volume of 100 µL with a 4% concentration of erythrocytes (v/v). The control wells for 0 (RBCs in PBS) and 100% (RBCs in 1% Triton-X 100) hemolysis were also prepared. Then, the plates were incubated for 1 h at 37 °C and centrifuged at 800× g for 10 min at 4 °C (Sorvall ST 16R Centrifuge, Thermo Scientific, Waltham, MA, USA). After centrifugation, the supernatant was carefully transferred to new microtiter plates and the release of hemoglobin was measured at 540 nm (Multiskan™ GO Microplate Spectrophotometer, Thermo Scientific, Waltham, MA, USA). The percentage of hemolysis was calculated based on wells with 100% hemolysis.

[7] = 18 h
[8] = fresh batch of blood (footnote a)

SMILES | MIC S. aureus 12598 (S. aureus ATCC 12598) | MIC S. aureus 6538 (S. aureus ATCC 6538) | MIC S. aureus 33591 [1] | MIC S. aureus 25923 (S. aureus ATCC 25923) | MIC S. aureus 9144 (S. aureus ATCC 9144) | MIC K. pneumoniae [2] | MIC P. aeruginosa [3] | MIC E. faecium [4] | MIC K. aerogenes [5] | Hemolytic effect over the studied concentration range ([6]; hRBCs, concentration range up to 512 µg/mL, significant = >5% hemolysis) | MIC A. baumannii [7] | MHC5 (minimum hemolytic concentration causing 5% hemolysis of hRBCs) ([6]; 100% = 1% Triton-X 100, ≥ means less than 5% hemolysis up to 512 µg/mL) | MHC5 (minimum hemolytic concentration causing 5% hemolysis of hRBCs) [6, 8]
CCCC(=O)NCCCC[C@H](NC(=O)CCC)C(=O)N[C@@H](CCCNC(=N)N)C(=O)N[C@H](C(=O)N[C@H](C(=O)N[C@@H](CCC(N)=O)C(=O)N[C@@H](CCCNC(=N)N)C(=O)N[C@H](C(=O)N[C@@H](CCCCN)C(=O)N[C@@H](CC(=O)O)C(=O)N[C@@H](Cc1ccccc1)C(=O)N[C@@H](CC(C)C)C(=O)N[C@@H](CCCNC(=N)N)C(N)=O)[C@@H](C)CC)C(C)C)[C@@H](C)CC [X, C4^α, C4^ε-KR12-NH2] (Butyryl-K(Butyryl)RIVQRIKDFLR-NH2) | 512 µg/mL (≈ 299 µM) | 32 µg/mL (≈ 18.7 µM) | 512 µg/mL (≈ 299 µM) | 128 µg/mL (≈ 74.8 µM) | 256 µg/mL (≈ 150 µM) | 512 µg/mL (≈ 299 µM) | >512 µg/mL | 32 µg/mL (≈ 18.7 µM) | 256 µg/mL (≈ 150 µM) | did not induce any significant hemolysis (>5%) | 128 µg/mL (≈ 74.8 µM) |  | 
CCCCCCCC(=O)N[C@@H](CCCNC(=N)N)C(=O)N[C@@H](CC(C)C)C(=O)N[C@@H](Cc1ccccc1)C(=O)N[C@@H](CC(=O)O)C(=O)N[C@@H](CCCCN)C(=O)N[C@H](C(=O)N[C@@H](CCCNC(=N)N)C(=O)N[C@@H](CCC(N)=O)C(=O)N[C@H](C(=O)N[C@H](C(=O)N[C@@H](CCCNC(=N)N)C(=O)N[C@@H](CCCCN)C(N)=O)[C@@H](C)CC)C(C)C)[C@@H](C)CC [XII, C8^α-retro-KR12-NH2] (Octanoyl-RLFDKIRQVIRK-NH2) | 32 µg/mL (≈ 18.9 µM) | 8 µg/mL (≈ 4.71 µM) | 32 µg/mL (≈ 18.9 µM) | 32 µg/mL (≈ 18.9 µM) | 32 µg/mL (≈ 18.9 µM) | 128 µg/mL (≈ 75.4 µM) | 64 µg/mL (≈ 37.7 µM) | 8 µg/mL (≈ 4.71 µM) | 256 µg/mL (≈ 151 µM) |  | 64 µg/mL (≈ 37.7 µM) | ≥512 µg/mL | 
CCCCCCC(CCCC)C(=O)N[C@@H](CCCCN)C(=O)N[C@@H](CCCNC(=N)N)C(=O)N[C@H](C(=O)N[C@H](C(=O)N[C@@H](CCC(N)=O)C(=O)N[C@@H](CCCNC(=N)N)C(=O)N[C@H](C(=O)N[C@@H](CCCCN)C(=O)N[C@@H](CC(=O)O)C(=O)N[C@@H](Cc1ccccc1)C(=O)N[C@@H](CC(C)C)C(=O)N[C@@H](CCCNC(=N)N)C(N)=O)[C@@H](C)CC)C(C)C)[C@@H](C)CC (some centres unmarked) [XIII, 2-Buthyloctanoic acid-KR12-NH2] (X1-KRIVQRIKDFLR-NH2) | 4 µg/mL (≈ 2.28 µM) | 32 µg/mL (≈ 18.3 µM) | 4 µg/mL (≈ 2.28 µM) | 8 µg/mL (≈ 4.56 µM) | 2 µg/mL (≈ 1.14 µM) | 8 µg/mL (≈ 4.56 µM) | 32 µg/mL (≈ 18.3 µM) | 2 µg/mL (≈ 1.14 µM) | 8 µg/mL (≈ 4.56 µM) |  | 4 µg/mL (≈ 2.28 µM) |  | 8 µg/mL and 16 ^a µg/mL
CCCCC(CC)C(=O)N[C@@H](CCCCN)C(=O)N[C@@H](CCCNC(=N)N)C(=O)N[C@H](C(=O)N[C@H](C(=O)N[C@@H](CCC(N)=O)C(=O)N[C@@H](CCCNC(=N)N)C(=O)N[C@H](C(=O)N[C@@H](CCCCN)C(=O)N[C@@H](CC(=O)O)C(=O)N[C@@H](Cc1ccccc1)C(=O)N[C@@H](CC(C)C)C(=O)N[C@@H](CCCNC(=N)N)C(N)=O)[C@@H](C)CC)C(C)C)[C@@H](C)CC (some centres unmarked) [XIV, 2-Ethylhexanoic acid-KR12-NH2] (X3-KRIVQRIKDFLR-NH2) | 32 µg/mL (≈ 18.9 µM) | 16 µg/mL (≈ 9.43 µM) | 16 µg/mL (≈ 9.43 µM) | 64 µg/mL (≈ 37.7 µM) | 32 µg/mL (≈ 18.9 µM) | 16 µg/mL (≈ 9.43 µM) | 128 µg/mL (≈ 75.4 µM) | 4 µg/mL (≈ 2.36 µM) | 16 µg/mL (≈ 9.43 µM) |  | 16 µg/mL (≈ 9.43 µM) |  | 256 ^a µg/mL
